Reference: patent US8592448B2 (OSI Pharmaceuticals, LLC, priority 2008, dated 2013)
Where two headings read alike, the source gives them in different places.

Experiments:
c-Met = biological target: T1, c-Met (Homo sapiens, UniProt P08581); assay: c-Met kinase assay (Invitrogen Z′-LYTE kinase assay platform); assay type: biochemical; details: Z′-LYTE kinase assay at Invitrogen, ATP concentration of 100 μM
T1 construct: purchased Invitrogen
Protocol: (§1) The activities of exemplary compounds of the present invention against Ron and c-Met determined at Invitrogen using the Z′-LYTE™ kinase assay platform are shown in Table 1: A, IC50≦0.1 μM; B, 0.1 μM<IC50≦1 μM; C, 1 μM<IC50≦10 μM; D, IC50>10 μM. The assays were conducted at an ATP concentration of 100 μM. The Example # of Table 1 corresponds to the compound example number as illustrated in the Examples section.

phosphorylated c-MET = biological target: T2, phosphorylated c-MET (Homo sapiens, UniProt P08581); assay: c-MET cell mechanistic assay (phosphorylated c-MET in MKN45 cells); assay type: cell-based; details: MKN45 cell line, four hours incubation, phosphorylated c-MET levels, at least duplicate experiments; read-out: Met mech IC50
T2 construct: endogenous in cells; host or cells: MKN45
T2 sequence (P08581 25-1390): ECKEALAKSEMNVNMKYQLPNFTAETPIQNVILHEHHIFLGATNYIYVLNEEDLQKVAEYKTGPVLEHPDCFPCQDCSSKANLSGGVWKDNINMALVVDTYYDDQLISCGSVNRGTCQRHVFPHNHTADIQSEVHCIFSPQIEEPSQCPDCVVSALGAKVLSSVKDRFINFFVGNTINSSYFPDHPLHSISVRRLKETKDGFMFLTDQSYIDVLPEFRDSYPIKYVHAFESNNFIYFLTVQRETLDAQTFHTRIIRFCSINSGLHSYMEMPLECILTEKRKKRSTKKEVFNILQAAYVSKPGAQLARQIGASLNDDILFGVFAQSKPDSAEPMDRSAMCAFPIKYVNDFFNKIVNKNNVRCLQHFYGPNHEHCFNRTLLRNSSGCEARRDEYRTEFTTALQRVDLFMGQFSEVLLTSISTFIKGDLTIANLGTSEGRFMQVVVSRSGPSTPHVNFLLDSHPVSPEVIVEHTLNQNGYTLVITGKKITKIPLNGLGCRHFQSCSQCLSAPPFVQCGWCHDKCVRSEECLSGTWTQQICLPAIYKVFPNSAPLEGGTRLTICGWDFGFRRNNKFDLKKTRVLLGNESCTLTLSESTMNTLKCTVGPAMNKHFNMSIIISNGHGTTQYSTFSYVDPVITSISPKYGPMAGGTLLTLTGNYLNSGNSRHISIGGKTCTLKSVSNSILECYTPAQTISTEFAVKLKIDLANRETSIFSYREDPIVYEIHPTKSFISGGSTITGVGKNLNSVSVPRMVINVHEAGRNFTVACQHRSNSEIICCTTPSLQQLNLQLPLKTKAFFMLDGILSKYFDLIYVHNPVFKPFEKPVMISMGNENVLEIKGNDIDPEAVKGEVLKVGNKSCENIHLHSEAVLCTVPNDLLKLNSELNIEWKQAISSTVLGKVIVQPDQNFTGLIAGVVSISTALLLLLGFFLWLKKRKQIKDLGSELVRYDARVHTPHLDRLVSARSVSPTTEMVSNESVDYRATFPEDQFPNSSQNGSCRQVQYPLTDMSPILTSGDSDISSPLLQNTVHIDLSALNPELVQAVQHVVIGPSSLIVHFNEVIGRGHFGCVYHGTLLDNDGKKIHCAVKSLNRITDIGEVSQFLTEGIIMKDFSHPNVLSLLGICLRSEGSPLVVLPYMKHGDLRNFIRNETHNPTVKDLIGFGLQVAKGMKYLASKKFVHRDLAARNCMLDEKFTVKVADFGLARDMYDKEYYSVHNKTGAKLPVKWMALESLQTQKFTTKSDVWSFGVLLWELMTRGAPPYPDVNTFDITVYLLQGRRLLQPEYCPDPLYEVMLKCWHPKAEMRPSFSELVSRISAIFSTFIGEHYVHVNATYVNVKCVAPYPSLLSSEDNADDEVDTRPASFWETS
Outline: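 MKN45 cells were treated 4 h at 37 °C with a 6-point dilution series (typically 10 μM to 3 nM; final 0.5% DMSO). Phospho-c-MET (pY1230/1234/1235) in lysates was measured by capture ELISA with HRP read-out at 450 nm. IC50 came from a four-parameter fit of percent of DMSO control.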

MKN45 cells = assay: MKN45 cell proliferation assay (CellTiter-Glo); assay type: cell-based; details: MKN45 cell line, 3 days incubation, at least duplicate experiments, read-out: Prolif. IC50
Outline: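 MKN45 cells (5000/well, RPMI + 10% FCS) plated overnight, then exposed to 8-point dilution series, typically 10 μM to 0.6 nM, in 0.1% DMSO for 3 days at 37 °C. CellTiter-Glo luminescence as % of DMSO control; IC50 from four-parameter fit, at least duplicate experiments.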

Ron = biological target: T3, Ron (Homo sapiens, UniProt Q04912); assay: Ron kinase assay (Invitrogen Z′-LYTE kinase assay platform); assay type: biochemical; details: Z′-LYTE kinase assay at Invitrogen, ATP concentration of 100 μM
T3 construct: purchased Invitrogen
T3 sequence (Q04912 25-1400): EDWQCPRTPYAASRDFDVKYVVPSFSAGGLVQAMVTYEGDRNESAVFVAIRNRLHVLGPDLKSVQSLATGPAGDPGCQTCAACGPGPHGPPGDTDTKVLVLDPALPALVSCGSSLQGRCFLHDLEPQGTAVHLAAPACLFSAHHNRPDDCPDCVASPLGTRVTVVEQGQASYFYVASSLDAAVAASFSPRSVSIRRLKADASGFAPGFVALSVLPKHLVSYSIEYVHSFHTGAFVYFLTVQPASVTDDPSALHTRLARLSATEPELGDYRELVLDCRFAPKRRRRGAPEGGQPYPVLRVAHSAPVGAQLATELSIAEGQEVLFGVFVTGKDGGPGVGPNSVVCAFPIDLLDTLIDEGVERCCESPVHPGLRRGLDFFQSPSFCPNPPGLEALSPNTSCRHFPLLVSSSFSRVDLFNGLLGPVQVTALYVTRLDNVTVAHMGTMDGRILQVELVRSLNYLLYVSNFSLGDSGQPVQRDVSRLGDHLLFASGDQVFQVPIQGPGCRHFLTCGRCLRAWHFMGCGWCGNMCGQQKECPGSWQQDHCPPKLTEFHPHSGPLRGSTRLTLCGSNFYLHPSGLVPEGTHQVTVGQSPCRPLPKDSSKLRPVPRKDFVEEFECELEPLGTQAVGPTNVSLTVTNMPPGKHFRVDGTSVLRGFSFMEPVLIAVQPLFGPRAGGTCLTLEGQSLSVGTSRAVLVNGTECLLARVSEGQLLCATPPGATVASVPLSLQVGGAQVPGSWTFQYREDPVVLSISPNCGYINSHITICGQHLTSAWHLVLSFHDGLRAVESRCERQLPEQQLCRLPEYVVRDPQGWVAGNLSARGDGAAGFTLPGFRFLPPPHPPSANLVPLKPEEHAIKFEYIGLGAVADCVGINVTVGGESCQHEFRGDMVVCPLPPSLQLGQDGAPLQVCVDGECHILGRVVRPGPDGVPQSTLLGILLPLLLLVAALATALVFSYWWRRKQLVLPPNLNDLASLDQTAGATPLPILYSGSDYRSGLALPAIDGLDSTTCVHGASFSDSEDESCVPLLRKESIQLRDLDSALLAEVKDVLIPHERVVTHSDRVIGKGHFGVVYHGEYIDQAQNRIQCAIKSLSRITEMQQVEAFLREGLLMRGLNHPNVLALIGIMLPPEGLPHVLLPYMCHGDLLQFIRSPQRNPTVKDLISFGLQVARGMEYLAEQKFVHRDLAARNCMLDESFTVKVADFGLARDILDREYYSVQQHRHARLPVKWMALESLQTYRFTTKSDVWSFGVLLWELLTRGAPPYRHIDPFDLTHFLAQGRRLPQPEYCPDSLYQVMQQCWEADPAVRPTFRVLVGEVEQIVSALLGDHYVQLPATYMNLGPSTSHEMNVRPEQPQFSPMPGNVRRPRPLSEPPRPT
Protocol: as §1

T1 sequence (P08581 25-1390): as the sequence (P08581 25-1390) above

SMILES: C[C@H](c1c(Cl)ccc(F)c1Cl)c1c[nH]c2ncc(-c3cnn(CCO)c3)cc12 [Example 70, 2-(4-{3-[(S)-1-(2,6-Dichloro-3-fluorophenyl)ethyl]-1H-pyrrolo[2,3-b]-pyridin-5-yl}pyrazol-1-yl)ethanol]
- IC50 (c-Met): ≤ 100 nM
- IC50 (phosphorylated c-MET): ≤ 100 nM
- IC50 (MKN45 cells; Homo sapiens, MKN-45, 72 h): ≤ 100 nM
- IC50 (Ron): 1000 to 10000 nM

SMILES: CC(c1c(Cl)ccc(F)c1Cl)c1c[nH]c2ncc(-c3cnn(C4CCNCC4)c3)cc12 (centres unmarked) [Example 2, 3-[1-(2,6-Dichloro-3-fluorophenyl)ethyl]-5-(1-piperidin-4-yl-1H-pyrazol-4-yl)-1H-pyrrolo[2,3-b]pyridine]
- IC50 (c-Met): ≤ 100 nM
- IC50 (phosphorylated c-MET): ≤ 100 nM
- IC50 (MKN45 cells; Homo sapiens, MKN-45, 72 h): ≤ 100 nM
- IC50 (Ron): ≤ 100 nM

SMILES: CC(c1c(Cl)cccc1Cl)c1c[nH]c2ncc(-c3cnn(C4CCNCC4)c3)cc12 (centres unmarked) [Example 1, 3-[1-(2,6-Dichlorophenyl)ethyl]-5-(1-piperidin-4-yl-1H-pyrazol-4-yl)-1H-pyrrolo[2,3-b]pyridine]
- IC50 (c-Met): ≤ 100 nM
- IC50 (phosphorylated c-MET): ≤ 100 nM
- IC50 (MKN45 cells; Homo sapiens, MKN-45, 72 h): 100 to 1000 nM
- IC50 (Ron): ≤ 100 nM

SMILES: CC(c1c(Cl)ccc(F)c1Cl)c1c[nH]c2ncc(-c3cnn(C4CCN(C=O)CC4)c3)cc12 (centres unmarked) [Example 71, 4-(4-{3-[1-(2,6-Dichloro-3-fluorophenyl)ethyl]-1H-pyrrolo[2,3-b]pyridin-5-yl}-pyrazol-1-yl)-piperidine-1-carbaldehyde]
- IC50 (c-Met): ≤ 100 nM
- IC50 (MKN45 cells): ≤ 100 nM
- IC50 (Ron): 100 to 1000 nM

SMILES: CC(c1c(Cl)ccc(F)c1Cl)c1c[nH]c2ncc(-c3cnn(C4CCC(=O)CC4)c3)cc12 (centres unmarked) [Example 89, 4-(4-{3-[1-(2,6-Dichloro-3-fluorophenyl)ethyl]-1H-pyrrolo[2,3-b]pyridin-5-yl}-pyrazol-1-yl)cyclohexanone]
- IC50 (phosphorylated c-MET): ≤ 100 nM
- IC50 (MKN45 cells; Homo sapiens, MKN-45, 72 h): ≤ 100 nM
